Measured values taken from the supplement of paper PMC13207355.
Where a name gives a salt, the structure may show the parent alone.

Assays:
Conditions in all cases: exposure time: 72 h
[1] = system: FT3469 (normal neural stem cell line); assay: phenotypic distance (Euclidean, principal components) from DMSO controls (arbitrary units); higher = stronger morphological change
[2] = system: E28 (patient-derived glioblastoma stem cells of classical subtype); assay: as above
[3] = system: E34 (patient-derived glioblastoma stem cells of proneural subtype); assay: as above
[4] = system: E31 (patient-derived glioblastoma stem cells of proneural subtype); assay: as above
[5] = system: E21 (patient-derived glioblastoma stem cells of mesenchymal subtype); assay: as above
[6] = system: E13 (patient-derived glioblastoma stem cells of classical subtype); assay: as above
[7] = system: E57 (patient-derived glioblastoma stem cells of mesenchymal subtype); assay: as above
[8] = system: FT3469; assay: surviving fraction (nuclei count normalised to DMSO); higher = more cells surviving (less toxic)
[9] = system: E28; assay: as above
[10] = system: E34; assay: as above
[11] = system: E31; assay: as above
[12] = system: E21; assay: as above
[13] = system: E13; assay: as above
[14] = system: E57; assay: as above
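Wherever phenotypic distance (Euclidean, principal components) from DMSO controls is given: cell Painting imaging in 384-well plates, CellProfiler features reduced to at least 20 principal components, Euclidean distance versus same-plate DMSO vehicle wells (0.1% v/v), median over six images per well.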
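Wherever surviving fraction (nuclei count normalised to DMSO) is given: nuclei counted by high-content imaging of Hoechst-stained cells in laminin-coated 384-well plates, relative to 0.1% DMSO vehicle wells, with staurosporine as cell-death control.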

COC(=O)Nc1nc2cc(C(=O)c3cccs3)ccc2[nH]1 [Nocodazole]
Conditions | phenotypic distance | surviving fraction
[1], 4.11523 nM | 3.38 | –
[1], 12.34567901 nM | 3.38 | –
[1], 37.037 nM | 3.11 | –
[1], 111.1111111 nM | 2.9 | –
[1], 333.333 nM | 3.84 | –
[1], 1000 nM | 5.03 | –
[1], 3000 nM | 4.79 | –
[2], 4.11523 nM | 2.22 | –
[2], 12.34567901 nM | 2.63 | –
[2], 37.037 nM | 2.97 | –
[2], 111.1111111 nM | 3.74 | –
[2], 333.333 nM | 3.59 | –
[2], 1000 nM | 4.6 | –
[2], 3000 nM | 5.85 | –
[3], 4.11523 nM | 3.24 | –
[3], 12.34567901 nM | 3.27 | –
[3], 37.037 nM | 4.43 | –
[3], 111.1111111 nM | 4.49 | –
[3], 333.333 nM | 5.97 | –
[3], 1000 nM | 8.12 | –
[3], 3000 nM | 7.56 | –
[4], 4.11523 nM | 4.08 | –
[4], 12.34567901 nM | 3.99 | –
[4], 37.037 nM | 5.49 | –
[4], 111.1111111 nM | 6.17 | –
[4], 333.333 nM | 5.43 | –
[4], 1000 nM | 11.1 | –
[4], 3000 nM | 12 | –
[5], 4.11523 nM | 4.87 | –
[5], 12.34567901 nM | 4.76 | –
[5], 37.037 nM | 8.31 | –
[5], 111.1111111 nM | 9.95 | –
[5], 333.333 nM | 9.8 | –
[5], 1000 nM | 8.46 | –
[5], 3000 nM | 9.75 | –
[6], 4.11523 nM | 6.13 | –
[6], 12.34567901 nM | 4.73 | –
[6], 37.037 nM | 5.56 | –
[6], 111.1111111 nM | 6.89 | –
[6], 333.333 nM | 6.42 | –
[6], 1000 nM | 6.56 | –
[6], 3000 nM | 9.87 | –
[7], 4.11523 nM | 5.26 | –
[7], 12.34567901 nM | 5.57 | –
[7], 37.037 nM | 7.85 | –
[7], 111.1111111 nM | 6.23 | –
[7], 333.333 nM | 6.48 | –
[7], 1000 nM | 6.95 | –
[7], 3000 nM | 6.12 | –
[8], 4.11523 nM | – | 0.562
[8], 12.34567901 nM | – | 0.573
[8], 37.037 nM | – | 0.619
[8], 111.1111111 nM | – | 0.474
[8], 333.333 nM | – | 0.582
[8], 1000 nM | – | 0.382
[8], 3000 nM | – | 0.353
[9], 4.11523 nM | – | 0.698
[9], 12.34567901 nM | – | 0.609
[9], 37.037 nM | – | 0.531
[9], 111.1111111 nM | – | 0.353
[9], 333.333 nM | – | 0.428
[9], 1000 nM | – | 0.267
[9], 3000 nM | – | 0.297
[10], 4.11523 nM | – | 0.543
[10], 12.34567901 nM | – | 0.541
[10], 37.037 nM | – | 0.488
[10], 111.1111111 nM | – | 0.469
[10], 333.333 nM | – | 0.394
[10], 1000 nM | – | 0.316
[10], 3000 nM | – | 0.433
[11], 4.11523 nM | – | 0.262
[11], 12.34567901 nM | – | 0.174
[11], 37.037 nM | – | 0.135
[11], 111.1111111 nM | – | 0.0743
[11], 333.333 nM | – | 0.0743
[11], 1000 nM | – | 0.058
[11], 3000 nM | – | 0.0327
[12], 4.11523 nM | – | 0.506
[12], 12.34567901 nM | – | 0.54
[12], 37.037 nM | – | 0.116
[12], 111.1111111 nM | – | 0.101
[12], 333.333 nM | – | 0.118
[12], 1000 nM | – | 0.0883
[12], 3000 nM | – | 0.083
[13], 4.11523 nM | – | 0.286
[13], 12.34567901 nM | – | 0.309
[13], 37.037 nM | – | 0.238
[13], 111.1111111 nM | – | 0.193
[13], 333.333 nM | – | 0.228
[13], 1000 nM | – | 0.186
[13], 3000 nM | – | 0.178
[14], 4.11523 nM | – | 0.452
[14], 12.34567901 nM | – | 0.418
[14], 37.037 nM | – | 0.143
[14], 111.1111111 nM | – | 0.067
[14], 333.333 nM | – | 0.0805
[14], 1000 nM | – | 0.0687
[14], 3000 nM | – | 0.104

CNCCCC12CCC(c3ccccc31)c1ccccc12 [Maprotiline hydrochloride]
Conditions | phenotypic distance | surviving fraction
[1], 4.1 nM | 0.707 | –
[1], 12.3 nM | 0.982 | –
[1], 37 nM | 0.677 | –
[1], 111.1 nM | 1.1 | –
[1], 333.3 nM | 0.895 | –
[1], 1000 nM | 1.08 | –
[1], 3000 nM | 0.56 | –
[2], 4.1 nM | 0.756 | –
[2], 12.3 nM | 0.57 | –
[2], 37 nM | 0.744 | –
[2], 111.1 nM | 0.651 | –
[2], 333.3 nM | 0.753 | –
[2], 1000 nM | 0.525 | –
[2], 3000 nM | 0.615 | –
[3], 4.1 nM | 0.824 | –
[3], 12.3 nM | 0.524 | –
[3], 37 nM | 0.568 | –
[3], 111.1 nM | 1.03 | –
[3], 333.3 nM | 0.644 | –
[3], 1000 nM | 1.11 | –
[3], 3000 nM | 0.788 | –
[4], 4.1 nM | 0.322 | –
[4], 12.3 nM | 0.404 | –
[4], 37 nM | 0.529 | –
[4], 111.1 nM | 0.826 | –
[4], 333.3 nM | 0.77 | –
[4], 1000 nM | 0.546 | –
[4], 3000 nM | 0.55 | –
[5], 4.1 nM | 0.674 | –
[5], 12.3 nM | 1.04 | –
[5], 37 nM | 0.745 | –
[5], 111.1 nM | 1.03 | –
[5], 333.3 nM | 0.9 | –
[5], 1000 nM | 0.798 | –
[5], 3000 nM | 0.546 | –
[6], 4.1 nM | 0.553 | –
[6], 12.3 nM | 0.296 | –
[6], 37 nM | 0.356 | –
[6], 111.1 nM | 0.55 | –
[6], 333.3 nM | 0.608 | –
[6], 1000 nM | 0.471 | –
[6], 3000 nM | 0.392 | –
[7], 4.1 nM | 0.339 | –
[7], 12.3 nM | 0.804 | –
[7], 37 nM | 0.81 | –
[7], 111.1 nM | 0.882 | –
[7], 333.3 nM | 0.422 | –
[7], 1000 nM | 0.498 | –
[7], 3000 nM | 0.628 | –
[8], 4.1 nM | – | 1.09
[8], 12.3 nM | – | 1.18
[8], 37 nM | – | 1.3
[8], 111.1 nM | – | 1.07
[8], 333.3 nM | – | 0.901
[8], 1000 nM | – | 1.16
[8], 3000 nM | – | 0.869
[9], 4.1 nM | – | 1.23
[9], 12.3 nM | – | 0.929
[9], 37 nM | – | 0.979
[9], 111.1 nM | – | 1.21
[9], 333.3 nM | – | 1.13
[9], 1000 nM | – | 0.951
[9], 3000 nM | – | 0.979
[10], 4.1 nM | – | 1.04
[10], 12.3 nM | – | 0.869
[10], 37 nM | – | 0.875
[10], 111.1 nM | – | 1.01
[10], 333.3 nM | – | 1.02
[10], 1000 nM | – | 0.997
[10], 3000 nM | – | 1.07
[11], 4.1 nM | – | 1.07
[11], 12.3 nM | – | 1.06
[11], 37 nM | – | 1.02
[11], 111.1 nM | – | 0.859
[11], 333.3 nM | – | 1.18
[11], 1000 nM | – | 1.05
[11], 3000 nM | – | 1.01
[12], 4.1 nM | – | 1.04
[12], 12.3 nM | – | 0.944
[12], 37 nM | – | 0.982
[12], 111.1 nM | – | 1.06
[12], 333.3 nM | – | 1.02
[12], 1000 nM | – | 1.03
[12], 3000 nM | – | 1.06
[13], 4.1 nM | – | 0.984
[13], 12.3 nM | – | 1.05
[13], 37 nM | – | 0.987
[13], 111.1 nM | – | 1.05
[13], 333.3 nM | – | 1.1
[13], 1000 nM | – | 1.05
[13], 3000 nM | – | 0.911
[14], 4.1 nM | – | 1.06
[14], 12.3 nM | – | 1.12
[14], 37 nM | – | 1.09
[14], 111.1 nM | – | 1.1
[14], 333.3 nM | – | 0.986
[14], 1000 nM | – | 0.93
[14], 3000 nM | – | 1.09
